Measured values published in US11439148B2, “Pyrimidine derivatives” (SYNGENTA PARTICIPATIONS AG, priority 2017, dated 2022).

How the values were obtained:
Format in all cases: in vivo
[1] = tested on: four weed species (ALOMY, AVEFA, LOLPE, SETVI); test: Adjuvant efficacy with pinoxaden, glasshouse spray test, average over all species; conditions: pinoxaden EC, mean over 7.5 and 15 g/ha, adjuvant 0.2% v/v (none in No Adjuvant rows), 21 days, average of ALOMY
Experimental: (§1) The efficacy of adjuvants 1-12 as adjuvants for the herbicide pinoxaden were tested in a glasshouse against four weed species, sown into standard soil in pots and cultivated under controlled conditions in a glasshouse (at 20/16° C. day/night; 16 hours light; 65% humidity). Pinoxaden was added to the spray tank as a standard EC (emulsifiable concentrate) formulation.
The spray tests were also carried out using pinoxaden in conjunction with adjuvants 1-12. The adjuvants were added to the spray solution at a rate of 0.2% v/v unless otherwise stated. All spray solutions also contained 10% w/w of iso-Propanol. The weed species and their BBCH growth stage at spraying were Avena fatua (AVEFA; growth stage 12), Lolium perenne (LOLPE; growth stage 13), Alopecurus myosuroides (ALOMY; growth stage 13), and Setaria viridis (SETVI; growth stage 13-14). Each spray test was replicated three times. The test plants were then grown in a glasshouse under controlled conditions (at 20/16° C. day/night; 16 hours light; 65% humidity) and watered twice a day. The efficacy of the herbicide was assessed visually and expressed as a percentage of the leaf area killed. Samples were assessed at a time period of 21 days following application. The results shown in Table 4 below are mean averages over the two rates of pinoxaden, and the three replicates.

[2] = tested on: four weed species (ABUTH, CHEAL, IPOHE, SETVI); test: Adjuvant efficacy with fomesafen, glasshouse spray test, average over all species; conditions: fomesafen sodium salt SL, mean over 100 and 200 g/ha, adjuvant 0.2% v/v (none in No Adjuvant rows), 21 days, average of ABUTH
Experimental: as §1, with “fomesafen (as the sodium salt)” for “pinoxaden”, “24/18°” for “20/16°”, “light,” for “light;”, “Fomesafen sodium salt” for “Pinoxaden”, “SL (soluble” for “EC (emulsifiable”
(§2) The spray tests were also carried out using fomesafen in conjunction with adjuvants 1-12. Unless otherwise stated, the adjuvants were added to the spray solution at a rate of 0.2% v/v. All spray solutions also contained 12.5% v/v of iso-Propanol to normalise the retention of the sprays on the hydrophobic plant surfaces. The weed species and their BBCH growth stage at spraying were Abutilon theophrasti (ABUTH; growth stage 12-13), Chenopodium album (CHEAL; growth stage 15), Ipomea hederacea (IPOHE; growth stage 12), and Setaria viridis (SETVI; growth stage 14). Each spray test was replicated three times. The test plants were then grown in a glasshouse under controlled conditions (at 24/18° C. day/night; 16 hours light; 65% humidity) and watered twice a day.
(§3) The efficacy of the herbicide was assessed visually and expressed as a percentage of the leaf area killed. Samples were assessed at a time period of 21 days following application. The results shown in Table 2 below are mean averages over the two rates of fomesafen, the three replicates […].

[3] = tested on: four weed species (ABUTH, CHEAL, DIGSA, SETVI); test: Adjuvant efficacy with nicosulfuron, glasshouse spray test, average over all species; conditions: nicosulfuron WG, mean over 15 and 60 g/ha, adjuvant 0.2% v/v (none in No Adjuvant rows), 21 days, average of ABUTH
Experimental: as §1, with “nicosulfuron” for “pinoxaden”, “species” for “species,”, “24/18°” for “20/16°”, “Nicosulfuron” for “Pinoxaden”, “WG (water dispersible granule)” for “EC (emulsifiable concentrate)”
The spray tests were also carried out using nicosulfuron in conjunction with adjuvants 1-12. The adjuvant was added to the spray solution at a rate of 0.2% v/v. All spray solutions also contained 12.5% v/v of iso-Propanol. The weed species and their BBCH growth stage at spraying were Abutilon theophrasti (ABUTH; growth stage 13), Chenopodium album (CHEAL; growth stage 13-14), Digitaria sanguinalis (DIGSA; growth stage 11), and Setaria viridis (SETVI; growth stage 13). Each spray test was replicated three times. The test plants were then grown in a glasshouse under controlled conditions (at 24/18° C. day/night; 16 hours light; 65% humidity) and watered twice a day. The efficacy of the herbicide was assessed visually and expressed as a percentage of the leaf area killed. Samples were assessed at a time period of 21 days following application. The results shown in Table 1 below are mean averages over the two rates of nicosulfuron, and the three replicates.

Ipomea hederacea (IPOHE) = test: Adjuvant efficacy with fomesafen, glasshouse spray test; conditions: fomesafen sodium salt SL, mean over 100 and 200 g/ha and 3 replicates; adjuvant 0.2% v/v (none in No Adjuvant rows); % leaf area killed, 21 days after application; Tests 1-4 separate runs
Experimental: as §1, with “fomesafen (as the sodium salt)” for “pinoxaden”, “24/18°” for “20/16°”, “light,” for “light;”, “Fomesafen sodium salt” for “Pinoxaden”, “SL (soluble” for “EC (emulsifiable”
as §2, §3

Setaria viridis (SETVI) = test: as above; conditions: fomesafen sodium salt SL, mean over 100 and 200 g/ha and 3 replicates; adjuvant 0.2% v/v (none in No Adjuvant rows); % leaf area killed, 21 days after application; Tests 1-4 separate runs
Experimental: as §1, with “fomesafen (as the sodium salt)” for “pinoxaden”, “24/18°” for “20/16°”, “light,” for “light;”, “Fomesafen sodium salt” for “Pinoxaden”, “SL (soluble” for “EC (emulsifiable”
as §2, §3

[4] = tested on: Chenopodium album (CHEAL); test: as above; conditions: fomesafen sodium salt SL, mean over 100 and 200 g/ha and 3 replicates; adjuvant 0.2% v/v (none in No Adjuvant rows); % leaf area killed, 21 days after application; Tests 1-4 separate runs
Experimental: as §1, with “fomesafen (as the sodium salt)” for “pinoxaden”, “24/18°” for “20/16°”, “light,” for “light;”, “Fomesafen sodium salt” for “Pinoxaden”, “SL (soluble” for “EC (emulsifiable”
as §2, §3

[5] = tested on: Abutilon theophrasti (ABUTH); test: as above; conditions: fomesafen sodium salt SL, mean over 100 and 200 g/ha and 3 replicates; adjuvant 0.2% v/v (none in No Adjuvant rows); % leaf area killed, 21 days after application; Tests 1-4 separate runs
Experimental: as §1, with “fomesafen (as the sodium salt)” for “pinoxaden”, “24/18°” for “20/16°”, “light,” for “light;”, “Fomesafen sodium salt” for “Pinoxaden”, “SL (soluble” for “EC (emulsifiable”
as §2, §3

[6] = tested on: Digitaria sanguinalis (DIGSA); test: Adjuvant efficacy with mesotrione, glasshouse spray test; conditions: mesotrione SC, mean over 30 and 60 g/ha and 3 replicates; adjuvant 0.2% v/v (none in No Adjuvant rows); % leaf area killed, 21 days after application; Tests 1-4 separate runs
Experimental: (§4) The efficacy of adjuvants 1-12 as an adjuvant for the herbicide mesotrione was tested in a glasshouse against four weed species sown into standard soil in pots and cultivated under controlled conditions in a glasshouse (at 24/18° C. day/night; 16 hours light; 65% humidity). Mesotrione was added to the spray tank as a standard SC (suspension concentrate) formulation.
(§5) The spray tests were also carried out using mesotrione in conjunction with adjuvants 1-12. The adjuvants were added to the spray solution at a rate of 0.2% v/v unless otherwise stated. All spray solutions also contained 10% w/w of iso-Propanol. The weed species and their BBCH growth stage at spraying were Brachiaria platyphylla (BRAPP; growth stage 13-14) or Brachiaria plantaginea (BRAPL; growth stage 13-14), Commelina benghalensis (COMBE; growth stage 13), Digitaria sanguinalis (DIGSA; growth stage 14), and Polygonum convolvulus (POLCO; growth stage 13-14). Each spray test was replicated three times.
(§6) The test plants were then grown in a glasshouse under controlled conditions (at 24/18° C. day/night; 16 hours light; 65% humidity) and watered twice a day. The efficacy of the herbicide was assessed visually and expressed as a percentage of the leaf area killed. Samples were assessed at a time period of 21 days following application. The results shown in Table 3 below are mean averages over the two rates of mesotrione and the three replicates.

[7] = tested on: Polygonum convolvulus (POLCO); test: as above; conditions: mesotrione SC, mean over 30 and 60 g/ha and 3 replicates; adjuvant 0.2% v/v (none in No Adjuvant rows); % leaf area killed, 21 days after application; Tests 1-4 separate runs
Experimental: as §4, §5, §6

In the case of `CCCCCCOc1cc(OCCOCCOCCOCCOCCOCCOCCOCCOCCOCCOC)ncn1` [Adjuvant 2], the “Mean % Herbicidal Activity Average over all Species” value (shortened to “Mean % Herbicidal Activity Average”) [1] is reported as 47%, the “Mean % Herbicidal Activity Average” value [2] is reported as 68% and the “Mean % Herbicidal Activity Average” value [3] is reported as 82%. For the same compound, the “Mean % Herbicidal Activity IPOHE” value (Ipomea hederacea (IPOHE)) was 95%, the “Mean % Herbicidal Activity SETVI” value (Setaria viridis (SETVI)) was 53% and the “Mean % Herbicidal Activity CHEAL” value [4] was 68%. For the same compound, the “Mean % Herbicidal Activity ABUTH” value [5] was 57%, the “Mean % Herbicidal Activity DIGSA” value [6] was 79% and the “Mean % Herbicidal Activity POLCO” value [7] was 94%.
